Laboratory results from patent US20050085463A1 (priority 2003, published 2005).
Values joined by “and” are separate entries in the source; they are usually repeats but may differ in a detail not shown here. Identical values can stand only once. “Also recorded” adds a separate entry of the source.

Legend:
M3 muscarinic receptor = M3 muscarinic receptor (Homo sapiens, UniProt P20309); assay: R-SAT competitive antagonist assay; format: cell-based; settings: nr = no significant antagonist or inverse agonist activity up to 1 μM, nr* = nr but significant agonist activity, read-out: pKi M3, competitive antagonist (converted)
α2 receptors = assay: Ligand binding screen at 10 μM
H1 receptors = H1 receptors (Homo sapiens, UniProt P35367); assay: Ligand binding screen at 10 μM
M3 receptors = M3 receptors (Homo sapiens, UniProt P20309); assay: Ligand binding screen at 10 μM
δ2 receptors = δ2 receptors (Homo sapiens, UniProt P41143); assay: Ligand binding screen at 10 μM
5HT1B receptors = 5HT1B receptors (Homo sapiens, UniProt P28222); assay: Ligand binding screen at 10 μM
5HT6 receptors = 5HT6 receptors (Homo sapiens, UniProt P50406); assay: Ligand binding screen at 10 μM
5HT7 receptors = 5HT7 receptors (Homo sapiens, UniProt P34969); assay: Ligand binding screen at 10 μM
[1] = Serum levels during clozapine treatment of schizophrenic patients; format: in vivo, human
Description: The analysis was adjusted for baseline level of symptom severity, age, and dose, since dose was not fixed. […] Regarding co-treatment with anticholinergic agents, only two subjects in this sample were treated with benztropine. […] Lastly, ten of the patients in this study were treated with benzodiazepines at the time the levels of clozapine and NDMC were measured.
Patients were classified as treatment resistant or not by standard criteria (Kane et al 1988), and clinical ratings and neuropsychological test scores were obtained by trained raters who were blinded to plasma drug levels.

[2] = molecular target: T1, α1A (Alpha 1A) adrenergic receptor (Homo sapiens, UniProt P35348); settings: R-SAT; nr = no significant antagonist or inverse agonist activity up to 1 μM; nr* = nr but significant agonist activity
T1 sequence (P35348 1-466): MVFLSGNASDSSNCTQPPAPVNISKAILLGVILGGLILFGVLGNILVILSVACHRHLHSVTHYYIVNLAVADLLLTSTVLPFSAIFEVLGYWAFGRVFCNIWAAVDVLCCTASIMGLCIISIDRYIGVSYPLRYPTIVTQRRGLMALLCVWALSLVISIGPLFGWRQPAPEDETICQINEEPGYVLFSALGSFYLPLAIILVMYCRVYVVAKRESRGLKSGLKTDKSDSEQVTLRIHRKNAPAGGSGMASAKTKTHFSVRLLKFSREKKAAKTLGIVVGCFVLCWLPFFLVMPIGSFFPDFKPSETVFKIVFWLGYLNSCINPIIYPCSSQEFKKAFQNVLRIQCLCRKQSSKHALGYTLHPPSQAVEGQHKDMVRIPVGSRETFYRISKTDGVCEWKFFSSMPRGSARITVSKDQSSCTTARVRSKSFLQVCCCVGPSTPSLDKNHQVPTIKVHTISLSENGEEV

[3] = tested on: MAPK in CA1 region of hippocampus (M1 receptor mediated)
cFOS expression in brain = settings: s.c. 7.5 and 30.0 mg/kg; two hours; western blotting (Young et al.); cited from earlier work
[4] = dog; oral clozapine (Mosier et al. 2003); cited from earlier work
[5] = molecular target: T1, α1A (Alpha 1A) adrenergic receptor; assay: cell-based
5-HT6A receptor = 5-HT6A receptor (Homo sapiens, UniProt P50406); assay: R-SAT inverse agonist assay
M5 muscarinic receptor [6] = molecular target: T2, M5 muscarinic receptor (Homo sapiens, UniProt P08912); assay: R-SAT competitive antagonist assay; settings: nr = no significant antagonist or inverse agonist activity up to 1 μM, nr* = nr but significant agonist activity
T2 sequence (P08912 1-532): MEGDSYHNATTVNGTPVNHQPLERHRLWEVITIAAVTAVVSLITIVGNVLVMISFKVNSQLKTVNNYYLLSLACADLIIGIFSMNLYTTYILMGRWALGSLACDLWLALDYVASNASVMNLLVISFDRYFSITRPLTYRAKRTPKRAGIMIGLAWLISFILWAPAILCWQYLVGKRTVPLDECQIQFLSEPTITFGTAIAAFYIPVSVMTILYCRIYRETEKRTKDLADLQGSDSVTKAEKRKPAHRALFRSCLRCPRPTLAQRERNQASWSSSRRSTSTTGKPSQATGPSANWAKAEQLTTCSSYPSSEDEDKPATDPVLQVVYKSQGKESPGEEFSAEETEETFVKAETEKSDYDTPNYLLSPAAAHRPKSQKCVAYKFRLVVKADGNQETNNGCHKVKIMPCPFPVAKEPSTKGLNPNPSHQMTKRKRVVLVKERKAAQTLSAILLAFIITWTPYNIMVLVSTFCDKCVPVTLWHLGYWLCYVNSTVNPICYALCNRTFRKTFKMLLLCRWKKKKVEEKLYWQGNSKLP

[7] = tested on: apomorphine-induced climbing; assay: Reversal of apomorphine-induced climbing; settings: s.c.
M5 muscarinic receptor [8] = molecular target: T2, M5 muscarinic receptor; assay: R-SAT agonist assay; format: cell-based; design: expressed in transfected cells; host or cells: NIH/3T3
[9] = clozapine-treated schizophrenics
[10] = clozapine-treated treatment resistant schizophrenics

5-HT6A receptor, sequence (P50406 whole entry): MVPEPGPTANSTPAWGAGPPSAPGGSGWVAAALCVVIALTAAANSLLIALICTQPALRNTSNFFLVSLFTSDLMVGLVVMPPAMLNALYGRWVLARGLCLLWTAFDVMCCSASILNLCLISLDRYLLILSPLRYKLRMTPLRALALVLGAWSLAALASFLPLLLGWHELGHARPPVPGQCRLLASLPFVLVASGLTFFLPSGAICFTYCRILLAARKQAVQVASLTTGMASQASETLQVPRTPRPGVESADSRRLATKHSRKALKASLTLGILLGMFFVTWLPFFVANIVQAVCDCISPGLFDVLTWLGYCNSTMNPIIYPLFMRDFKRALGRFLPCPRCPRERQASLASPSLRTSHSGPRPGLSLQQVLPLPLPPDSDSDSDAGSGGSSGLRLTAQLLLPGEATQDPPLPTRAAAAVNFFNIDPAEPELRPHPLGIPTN
δ2 receptors, sequence (P41143 whole entry): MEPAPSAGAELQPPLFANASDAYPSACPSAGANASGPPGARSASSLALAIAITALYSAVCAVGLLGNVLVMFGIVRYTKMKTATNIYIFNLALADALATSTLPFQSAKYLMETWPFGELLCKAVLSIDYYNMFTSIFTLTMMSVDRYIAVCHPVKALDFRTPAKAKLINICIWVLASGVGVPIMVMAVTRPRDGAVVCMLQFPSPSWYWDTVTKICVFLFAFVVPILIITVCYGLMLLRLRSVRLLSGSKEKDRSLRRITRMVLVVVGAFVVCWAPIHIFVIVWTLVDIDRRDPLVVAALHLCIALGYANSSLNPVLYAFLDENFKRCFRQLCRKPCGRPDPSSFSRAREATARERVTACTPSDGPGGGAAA
H1 receptors, sequence (P35367 whole entry): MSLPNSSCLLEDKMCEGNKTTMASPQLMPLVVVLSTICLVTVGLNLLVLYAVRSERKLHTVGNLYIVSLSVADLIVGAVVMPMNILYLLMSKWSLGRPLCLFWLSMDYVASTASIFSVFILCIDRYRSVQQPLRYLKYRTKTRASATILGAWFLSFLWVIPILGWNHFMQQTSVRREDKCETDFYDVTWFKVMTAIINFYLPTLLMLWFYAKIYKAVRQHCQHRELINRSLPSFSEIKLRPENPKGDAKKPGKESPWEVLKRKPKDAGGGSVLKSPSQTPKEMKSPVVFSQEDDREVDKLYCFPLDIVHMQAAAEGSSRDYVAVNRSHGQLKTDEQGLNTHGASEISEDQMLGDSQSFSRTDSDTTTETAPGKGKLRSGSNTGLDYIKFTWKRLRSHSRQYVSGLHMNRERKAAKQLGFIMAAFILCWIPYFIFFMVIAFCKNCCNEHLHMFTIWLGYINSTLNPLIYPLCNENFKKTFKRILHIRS
5HT7 receptors, sequence (P34969 whole entry): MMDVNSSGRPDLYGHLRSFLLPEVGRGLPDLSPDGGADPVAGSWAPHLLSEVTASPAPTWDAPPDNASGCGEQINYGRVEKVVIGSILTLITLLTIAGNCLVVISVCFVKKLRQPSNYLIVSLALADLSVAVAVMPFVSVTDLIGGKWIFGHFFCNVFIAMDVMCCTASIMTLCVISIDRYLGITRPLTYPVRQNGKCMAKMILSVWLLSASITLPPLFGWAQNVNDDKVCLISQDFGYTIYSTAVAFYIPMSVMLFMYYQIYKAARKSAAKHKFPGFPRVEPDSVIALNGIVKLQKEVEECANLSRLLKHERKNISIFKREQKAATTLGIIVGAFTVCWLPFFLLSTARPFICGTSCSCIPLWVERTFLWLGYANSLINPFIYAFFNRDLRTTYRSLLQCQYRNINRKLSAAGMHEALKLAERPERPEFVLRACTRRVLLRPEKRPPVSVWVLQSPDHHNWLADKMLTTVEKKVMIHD
5HT1B receptors, sequence (P28222 whole entry): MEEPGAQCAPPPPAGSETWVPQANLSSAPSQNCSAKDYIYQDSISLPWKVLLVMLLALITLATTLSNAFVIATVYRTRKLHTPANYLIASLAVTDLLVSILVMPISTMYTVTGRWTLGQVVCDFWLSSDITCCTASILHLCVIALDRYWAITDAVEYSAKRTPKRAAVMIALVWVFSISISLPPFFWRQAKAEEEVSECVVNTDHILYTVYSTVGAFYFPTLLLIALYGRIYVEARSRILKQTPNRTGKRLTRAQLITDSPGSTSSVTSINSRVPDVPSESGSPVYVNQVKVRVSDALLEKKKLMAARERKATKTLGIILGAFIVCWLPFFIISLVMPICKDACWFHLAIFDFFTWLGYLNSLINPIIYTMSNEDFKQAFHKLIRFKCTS
M3 receptors, sequence (P20309 whole entry): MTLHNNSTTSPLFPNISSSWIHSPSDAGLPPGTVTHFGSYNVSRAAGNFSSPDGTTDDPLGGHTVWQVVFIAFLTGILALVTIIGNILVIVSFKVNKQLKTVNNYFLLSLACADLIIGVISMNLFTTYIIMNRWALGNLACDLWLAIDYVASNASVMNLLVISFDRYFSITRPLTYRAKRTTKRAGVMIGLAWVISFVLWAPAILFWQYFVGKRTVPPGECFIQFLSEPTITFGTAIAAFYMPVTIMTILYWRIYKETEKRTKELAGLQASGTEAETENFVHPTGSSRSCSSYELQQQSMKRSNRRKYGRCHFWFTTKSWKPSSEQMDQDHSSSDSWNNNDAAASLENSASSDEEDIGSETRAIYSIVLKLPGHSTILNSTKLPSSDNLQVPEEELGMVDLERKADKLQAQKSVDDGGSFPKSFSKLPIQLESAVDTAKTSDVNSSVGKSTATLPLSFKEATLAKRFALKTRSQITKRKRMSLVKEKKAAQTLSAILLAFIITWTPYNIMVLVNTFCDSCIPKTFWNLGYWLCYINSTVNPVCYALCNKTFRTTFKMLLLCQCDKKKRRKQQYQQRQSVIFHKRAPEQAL
M3 muscarinic receptor, sequence (P20309 whole entry): as above
5HT6 receptors, sequence (P50406 whole entry): as the sequence (P50406 whole entry) above

Which results are given for `Clc1ccc2c(c1)N=C(N1CCNCC1)c1ccccc1N2` [NDMC, 8-chloro-11-(1-piperazinyl)-5H-dibenzo [b,e][1,4] diazepine]?
Ki (M3 muscarinic receptor): 158 nM; inhibition of binding, α2 (α2 receptors): ≥ 90%; inhibition at 10 µM (H1 receptors): ≥ 90%; inhibition at 10 µM (M3 receptors): ≥ 90%; inhibition at 10 µM (δ2 receptors): ≥ 90%; inhibition at 10 µM (5HT1B receptors): ≥ 90%; inhibition at 10 µM (5HT6 receptors): ≥ 90%; inhibition at 10 µM (5HT7 receptors): ≥ 90%; Serum level, All Subjects at 6 Months (92) [1, 9]: 235 ± 190 ng/mL; Serum level, All Subjects at 6 Weeks (86) [1, 9]: 194 ± 136 ng/mL; Serum level, Non-Responders (25) [1, 10]: 171 ± 123 ng/mL; Serum level, Responders (26) [1, 10]: 308 ± 243 ng/mL; Serum level, All TR Subjects (59) ([1]; clozapine-treated treatment resistant schizophrenics, drawn 12 hours after last clozapine dose): 260 ± 203 ng/mL; pKi α1A, competitive antagonist [2]: 7.3 ± 0.1; MAPK activation in CA1 region of hippocampus ([3]; s.c. 3, 10, 30 and 100 mg/kg, killed two hours later, phospho-MAPK immunoreactivity): stimulation of MAPK activity at all doses in a dose-dependent manner; also recorded: Robust activation was observed, at a dose of 30 mg/kg; dose with statistically significant M1 receptor activation (phospho-MAPK) ([3]; s.c., optical density of CA1 region, vs vehicle): ≥ 30 mg/kg; cFOS expression in brain regions (cFOS expression in brain): induction of cFOS expression in the pre-frontal cortex and nucleus accumbens, but not in striatum; Cmax of desmethylclozapine as share of that of clozapine [4]: approximately 20%; Ki [5]: 50.1 nM; EC50 (5-HT6A receptor): 126 nM; pEC50 5HT6A, inverse agonist (5-HT6A receptor; R-SAT, nr = no significant antagonist or inverse agonist activity up to 1 μM): 6.9 ± 0.1; pKi M5, competitive antagonist (M5 muscarinic receptor [6]): nr*; minimal effective dose, reduction of apomorphine-induced climbing [7]: > 100 mg/kg; EC50 (M5 muscarinic receptor [8]; R-SAT agonist, read-out: M5 pEC50 (converted)): 23.4 nM and 25.1 nM; M5 Efficacy (M5 muscarinic receptor [8]; R-SAT, relative to carbachol, No response/nr = no agonist activity up to 10 μM): 48 ± 6%; Ki (M5 muscarinic receptor [8]; functional pharmacological screen, read-out: Ki, partial agonist of M5): 25 nM
